In US20240277698A1, “METHODS OF USING ALDOSTERONE SYNTHASE INHIBITORS” (CINCOR PHARMA, INC., priority 2021, published 2024):

Key:
Type in all cases: in vivo
[1] = target: T1, CYP11B1 (Homo sapiens, UniProt P15538); experiment: SAD study: plasma cortisol, 11-deoxycortisol and 11-DOC after Cortrosyn challenge
T1 construct: endogenous in cells; host or cells: adrenal cortex of healthy human subjects (in vivo, oral dosing)
T1 sequence (P15538 25-503): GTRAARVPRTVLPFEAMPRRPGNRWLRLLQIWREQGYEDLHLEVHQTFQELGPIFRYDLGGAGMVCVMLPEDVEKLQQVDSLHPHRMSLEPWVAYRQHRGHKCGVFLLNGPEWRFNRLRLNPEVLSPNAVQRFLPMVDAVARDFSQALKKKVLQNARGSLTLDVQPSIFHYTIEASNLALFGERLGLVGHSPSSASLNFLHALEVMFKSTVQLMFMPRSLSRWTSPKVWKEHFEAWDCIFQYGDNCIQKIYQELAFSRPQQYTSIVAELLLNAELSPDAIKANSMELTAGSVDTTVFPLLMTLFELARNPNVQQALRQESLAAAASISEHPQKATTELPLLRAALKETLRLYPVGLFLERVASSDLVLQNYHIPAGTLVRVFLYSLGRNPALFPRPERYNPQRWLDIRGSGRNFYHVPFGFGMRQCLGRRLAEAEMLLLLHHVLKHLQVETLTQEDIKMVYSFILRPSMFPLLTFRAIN
Method: Single doses of (R)-compound 1 reduced plasma and urine aldosterone levels by approximately 85% to 90% in a dose-dependent manner, consistently reaching a maximum effect at a dose of 10 mg (R)-compound 1 under the different conditions tested (Cortrosyn® challenge, standing, normal salt diet, and low salt diet conditions). No change in plasma cortisol levels was apparent across the full dose range tested (0 to 360 mg (R)-compound 1).
A maximum effect on aldosterone reduction was consistently achieved at a dose of 10 mg under the different conditions tested in healthy subjects (Cortrosyn® challenge, standing, normal salt diet, and low salt diet conditions). No change in plasma cortisol levels after the Cortrosyn challenge was apparent across the full dose range tested (0 to 360 mg of (R)-compound 1).

[2] = SAD study Part 1: safety and tolerability (adverse events, laboratory values); conditions: single oral dose, highest dose tested
Method: There were no deaths, serious adverse events (SAEs), or dose-limiting events and the maximum tolerated dose observed was at the highest dose tested (360 mg). Overall, the most frequently reported AEs following administration of a single dose of (R)-compound 1 were headache, nasopharyngitis, diarrhea, asthenia, dizziness, and nausea.
Urine sodium and the sodium to potassium ratio both increased, with the sodium loss in urine greater than the potassium retention. No change in urine creatinine was apparent.
AEs were reported for few subjects and the incidence was not dose dependent (Table 14). No severe AEs, SAEs, withdrawals due to AEs, or deaths were noted. Overall, the most frequently reported AEs across dose levels were headache, nasopharyngitis, diarrhea, and nausea; however, the only events reported by >1 subject at any dose level were toothache (2 subjects [12.5%] with placebo), nasopharyngitis (2 subjects [12.5%] with placebo), and headache (2 subjects [33.3%] with 180 mg). The majority of AEs were considered not related to study drug. Two events of moderate gastroenteritis were reported (with 180 mg and placebo) and all other AEs were mild in intensity.
Isolated markedly abnormal safety laboratory values were reported but no dose-dependent pattern was apparent. No AEs related to markedly abnormal safety laboratory values were reported. […]

[3] = target: T2, aldosterone synthase (Homo sapiens, UniProt P19099); experiment: MAD study: urine aldosterone and tetrahydroaldosterone; conditions: mean
T2 construct: synthesized in the adrenal cortex by aldosterone synthase; endogenous in cells; host or cells: adrenal cortex of healthy human subjects (in vivo, oral dosing)
T2 sequence (P19099 25-503): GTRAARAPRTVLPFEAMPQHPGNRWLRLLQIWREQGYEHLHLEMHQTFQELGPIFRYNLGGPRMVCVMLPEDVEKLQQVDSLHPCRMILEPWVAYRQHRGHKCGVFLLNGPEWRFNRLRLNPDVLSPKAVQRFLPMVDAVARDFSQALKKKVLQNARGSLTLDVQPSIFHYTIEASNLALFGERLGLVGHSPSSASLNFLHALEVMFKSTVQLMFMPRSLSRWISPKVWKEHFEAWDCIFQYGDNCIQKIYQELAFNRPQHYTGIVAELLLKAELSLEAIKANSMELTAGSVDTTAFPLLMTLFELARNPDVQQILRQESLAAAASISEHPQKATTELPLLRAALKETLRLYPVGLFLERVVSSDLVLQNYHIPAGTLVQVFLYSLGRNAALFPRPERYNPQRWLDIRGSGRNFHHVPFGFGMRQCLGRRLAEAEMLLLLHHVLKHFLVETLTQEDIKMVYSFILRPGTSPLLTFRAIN
Source text: For each subject, the study consisted of: • A screening period of up to 28 days; • A 5-day inpatient run-in period during which subjects adhered to a controlled, standardized diet and underwent baseline PD assessments; • A 15-day inpatient treatment period, during which subjects received (R)-compound 1 or placebo once daily for 10 days while adhering to a controlled, standardized diet, followed by PK and PD sampling over an additional 5 days; and • A follow-up visit 3 days (1 day) after discharge from the clinical unit. • A cortisol stimulation test (Cohorts 1 and 2 only) and standing aldosterone assessment (all cohorts) were performed on Days 1 and 10. Serial blood samples for PK and PD were obtained prior to and at specified time points over 24 hours after dosing on Day 1 as well as prior to and at specified time points over 120 hours after dosing on Day 10. In addition, blood samples for PK were collected prior to dosing on Days 8 and 9. Urine for PK and PD measurements was collected over 24 hours starting just prior to dosing on Day 1 as well as over 120 hours starting just prior to dosing on Day 10.
Urine PD measures included concentrations of • Aldosterone; • Cortisol (free and total); and • Tetrahydroaldosterone.
For analysis, the urine PD concentrations were converted to total analyte amounts: Total amount (unit)=concentration (unit/volume) • urine volume

[4] = Absolute bioavailability, 3 mg IV versus 3 mg oral; conditions: human, plasma

**Q.** For `CCC(=O)N[C@@H]1CCCc2c(-c3ccc4c(c3)CCC(=O)N4C)cncc21` [(R)-Compound 1, (R)—N-(4-(1-methyl-2-oxo-1,2,3,4-tetrahydroquinolin-6-yl)-5,6,7,8-tetrahydroisoquinolin-8-yl)propionamide], which plasma cortisol levels ([1]; full dose range tested (0 to 360 mg), Cortrosyn challenge) is on record?
**A.** Its plasma cortisol levels is “No change”.

**Q.** What about the “doses at which 11-DOC increased” value ([1]; single doses) of the same compound?
**A.** The value was no less than 90 mg.

**Q.** And the 11-deoxycortisol ([1]; single doses up to 360 mg)?
**A.** The 11-deoxycortisol was “increases in 11-deoxycortisol (at doses of 180 mg and 360 mg)”.

**Q.** What about the maximum tolerated dose [2] of the same compound?
**A.** The maximum tolerated dose was 360 mg.

**Q.** And the “Urine aldosterone (ng), Percent change from baseline (Day −1) to Day 1 0-24 hr” value ([3]; 0.5 mg QD, normal salt diet)?
**A.** Its value is −23.7290%.

**Q.** What about the “Urine aldosterone (ng), Percent change from baseline (Day −1) to Day 10 0-24 hr” value ([3]; 0.5 mg QD, normal salt diet) of the same compound?
**A.** The value was 4.2728%.

**Q.** And the “Urine tetrahydroaldosterone (ng), Percent change from baseline (Day −1) to Day 1 0-24 hr” value ([3]; 0.5 mg QD, normal salt diet)?
**A.** The value was −12.0171%.

**Q.** What about the “Urine tetrahydroaldosterone (ng), Percent change from baseline (Day −1) to Day 10 0-24 hr” value ([3]; 0.5 mg QD, normal salt diet) of the same compound?
**A.** The value was 11.0511%.

**Q.** And the “Urine aldosterone (ng), Percent change from baseline (Day −1) to Day 1 0-24 hr” value ([3]; 1.5 mg QD, normal salt diet)?
**A.** Its value is −67.6229%.

**Q.** What about the “Urine aldosterone (ng), Percent change from baseline (Day −1) to Day 10 0-24 hr” value ([3]; 1.5 mg QD, normal salt diet) of the same compound?
**A.** The value was −65.6831%.

**Q.** What about the “Urine tetrahydroaldosterone (ng), Percent change from baseline (Day −1) to Day 1 0-24 hr” value ([3]; 1.5 mg QD, normal salt diet) of the same compound?
**A.** The value was −47.0556%.

**Q.** And the “Urine tetrahydroaldosterone (ng), Percent change from baseline (Day −1) to Day 10 0-24 hr” value ([3]; 1.5 mg QD, normal salt diet)?
**A.** The value was −60.9034%.

**Q.** And the “Urine aldosterone (ng), Percent change from baseline (Day −1) to Day 1 0-24 hr” value ([3]; 2.5 mg QD, low salt diet)?
**A.** The value was −61.1877%.

**Q.** And the “Urine aldosterone (ng), Percent change from baseline (Day −1) to Day 10 0-24 hr” value ([3]; 2.5 mg QD, low salt diet)?
**A.** The value was −19.3985%.

**Q.** What about the “Urine tetrahydroaldosterone (ng), Percent change from baseline (Day −1) to Day 1 0-24 hr” value ([3]; 2.5 mg QD, low salt diet) of the same compound?
**A.** Its value is −26.0540%.

**Q.** And the “Urine tetrahydroaldosterone (ng), Percent change from baseline (Day −1) to Day 10 0-24 hr” value ([3]; 2.5 mg QD, low salt diet)?
**A.** The value was −6.2967%.

**Q.** And the “Urine aldosterone (ng), Percent change from baseline (Day −1) to Day 1 0-24 hr” value ([3]; 2.5 mg QD, normal salt diet)?
**A.** Its value is −71.7141%.

**Q.** And the “Urine aldosterone (ng), Percent change from baseline (Day −1) to Day 10 0-24 hr” value ([3]; 2.5 mg QD, normal salt diet)?
**A.** Its value is −50.7592%.

**Q.** What about the “Urine tetrahydroaldosterone (ng), Percent change from baseline (Day −1) to Day 1 0-24 hr” value ([3]; 2.5 mg QD, normal salt diet) of the same compound?
**A.** Its value is −59.6517%.

**Q.** And the “Urine tetrahydroaldosterone (ng), Percent change from baseline (Day −1) to Day 10 0-24 hr” value ([3]; 2.5 mg QD, normal salt diet)?
**A.** The value was −55.1771%.

**Q.** And the “Urine aldosterone (ng), Percent change from baseline (Day −1) to Day 1 0-24 hr” value ([3]; 5.0 mg QD, low salt diet)?
**A.** The value was −83.5768%.

**Q.** And the “Urine tetrahydroaldosterone (ng), Percent change from baseline (Day −1) to Day 1 0-24 hr” value ([3]; 5.0 mg QD, low salt diet)?
**A.** Its value is −67.5905%.

**Q.** And the “Urine tetrahydroaldosterone (ng), Percent change from baseline (Day −1) to Day 10 0-24 hr” value ([3]; 5.0 mg QD, low salt diet)?
**A.** Its value is −64.5164%.

**Q.** And the bioavailability [4]?
**A.** The bioavailability was 97.9%.
